Laboratory results from patent US12162845B1, “3-(4-bromophenyl)-5-((2-isopropyl-5-methylphenoxy)methyl)-1,2,4-oxadiazole as an anti-cancer and antimicrobial compound” (KING FAISAL UNIVERSITY, priority 2023, dated 2024).

What was measured:
Type in all cases: cell-based
[1] = tested on: human prostate cancer cells (PC3); experiment: Cytotoxicity by SRB assay; conditions: 0.01 μM to 100 μM for 72 h, result in words
Source text: (§1) The anticancer activity of the described synthesized compounds against highly aggressive androgen-independent metastatic human prostate cancer cells (PC3) and osteosarcoma (MG-63) cells. The human prostate cancer cells (PC3) and human osteosarcoma cells (MG-63) were obtained from Nawah Scientific Inc. (Mokatam, Cairo, Egypt) and cultured in DMEM (Dulbecco's modified eagle's medium), Gibco, USA, supplemented with fetal bovine serum (FBS) at a concentration of 10% and 100 U/mL of penicillin and streptomycin (PS). The Cells were incubated at 37° C. in a humidified environment that contained 5% CO2.
(§2) Cells were seeded in 96-well plates as aliquots of 100 μL cell suspension and incubated in a complete media for 24 h. afterward, cells were treated with 3-(4-bromophenyl)-5-((2-isopropyl-5-methylphenoxy)methyl)-1,2,4-oxadiazole at diverse concentrations ranging from 0.01 μM to 100 μM for 72 h. Then, cells were fixed at 4° C. for one hour with 150 μL of 10% trichloroacetic acid (TCA). […] Then, 150 μL of Tris pH 10.5 (10 mM) was added, and the absorbance was measured at 540 nm using a BMG LABTECH®-FLUOstar Omega microplate reader (Ortenberg, Germany). Half maximal inhibitory concentrations (IC50) values were calculated for each experiment using GraphPad Prism 6 software. […]
(§3) The inhibition was calculated using the following equation: Inhibition %=100−Average Viability

[2] = tested on: human osteosarcoma cells (MG-63); experiment: Cytotoxicity by SRB assay; conditions: MG-63 cells, 0.01 μM to 100 μM for 72 h, result in words
Source text: as §1, §2, §3

Bacillus Cereus = experiment: Agar plate disc-diffusion, antibacterial inhibition zone
Method: (§4) The agar plate disc-diffusion method was applied. […] The discs were then placed onto the surface of agar plates (nutrient agar for bacteria and Sabouraud's dextrose agar for fungi) seeded with the test organism. Each plate contained 15 mL of the agar medium, previously seeded with 0.2 mL of the broth culture of each organism pregrown for 18 hours. The plates were incubated at 37° C. for 48 h, and 72 h for fungi. The inhibition zones were measured in mm. Discs impregnated with DMSO were used as a control, and its inhibition zone was subtracted from the tested compound actual inhibition zone.

Escherichia coli = experiment: as above
Method: as §4

Staphylococcus aureus = experiment: as above
Method: as §4

Pseudomonas aeruginosa = experiment: as above
Method: as §4

[3] = tested on: Chrysosporium keratinophilum; experiment: Agar plate disc-diffusion, antifungal inhibition zone
Method: as §4

Aspergillus flavus = experiment: as above
Method: as §4

different microbes = experiment: Antimicrobial activity, agar plate disc-diffusion (overall statement); conditions: against different microbes, result in words
Method: The agar plate disc-diffusion method was applied. Sterilized filter papers (6 mm in diameter) were wetted with 10 μL of a solution of 3-(4-bromophenyl)-5-((2-isopropyl-5-methylphenoxy)methyl)-1,2,4-oxadiazole (3) to be tested, containing 10 mg/mL in DMSO, and the discs were allowed to air dry. The discs were then placed onto the surface of agar plates (nutrient agar for bacteria and Sabouraud's dextrose agar for fungi) seeded with the test organism. Each plate contained 15 mL of the agar medium, previously seeded with 0.2 mL of the broth culture of each organism pregrown for 18 hours. The plates were incubated at 37° C. for 48 h, and 72 h for fungi. The inhibition zones were measured in mm. Discs impregnated with DMSO were used as a control, and its inhibition zone was subtracted from the tested compound actual inhibition zone.

[4] = A = concentration of comp. = 10,000 μL
[5] = B = concentration of comp. = 30,000 μL
[6] = C = concentration of comp. = 50,000 μL

Compound | inhibition zone (Bacillus Cereus; [4]) [mm] | inhibition zone (Bacillus Cereus; [5]) [mm] | inhibition zone (Bacillus Cereus; [6]) [mm] | inhibition zone (Escherichia coli; [4]) [mm] | inhibition zone (Escherichia coli; [5]) [mm] | inhibition zone (Escherichia coli; [6]) [mm] | inhibition zone (Staphylococcus aureus; [4]) [mm] | inhibition zone (Staphylococcus aureus; [5]) [mm] | inhibition zone (Staphylococcus aureus; [6]) [mm] | inhibition zone (Pseudomonas aeruginosa; [4]) [mm] | inhibition zone (Pseudomonas aeruginosa; [5]) [mm] | inhibition zone (Pseudomonas aeruginosa; [6]) [mm] | inhibition zone [3, 4] [mm] | inhibition zone [3, 5] [mm] | inhibition zone [3, 6] [mm] | inhibition zone (Aspergillus flavus; [4]) [mm] | inhibition zone (Aspergillus flavus; [5]) [mm] | inhibition zone (Aspergillus flavus; [6]) [mm] | further results
Cc1ccc(C(C)C)c(OCc2nc(-c3ccc(Br)cc3)no2)c1 [3-(4-bromophenyl)-5-((2-isopropyl-5-methylphenoxy)methyl)-1,2,4-oxadiazole] |  |  |  |  |  |  |  |  |  |  |  |  |  |  |  |  |  |  | antiproliferative activity [1]: excellent antiproliferative activities; antiproliferative activity [2]: excellent antiproliferative activities
O=C(O)c1cn(C2CC2)c2cc(N3CCNCC3)c(F)cc2c1=O [Cip., ciprofloxacin, reference compound] | 29 | 30 | 42 | 30 | 39 | 60 | 43 | 44 | 53 | 29 | 30 | 53 | 29 | 30 | 53 | 29 | 30 | 42 | 
Cc1ccc(C(C)C)c(OCc2nc(-c3ccc(Br)cc3)no2)c1 [compound 3, 3-(4-bromophenyl)-5-((2-isopropyl-5-methylphenoxy)methyl)-1,2,4-oxadiazole] | 25 | 27 | 42 | 28 | 37 | 55 | 13 | 17 | 21 | 24 | 27 | 39 | 26 | 28 | 48 | 17 | 20 | 29 | antimicrobial activity (different microbes): excellent antimicrobial activities
